In PMC11344848, “Proximity-driven site-specific cyclization of phage-displayed peptides” (Nature Communications, 2024) one finds ring closure, conversion by HPLC data, which are given here for 6 compounds.

This data set in a line: N-terminal-to-internal Cys bridging with heterobifunctional cyclopropenone-chloroacetamide linker (CCA): DTT reduction, cyclopropenone condensation with N-terminal Cys 1,2-aminothiol (1,4-thiazepan-5-one), then proximity-driven intramolecular thioether formation between internal Cys thiol and chloroacetamide. The note with it: the molecule shown is the open-chain precursor, PBS pH 7.4, 5% DMSO, 0.01 mM, 25.0 °C, 2.0 h, 2 steps.

Consider `N=C(N)NCCC[C@H](NC(=O)[C@@H]1CCCN1C(=O)[C@H](CS)NC(=O)[C@H](CC(N)=O)NC(=O)[C@H](CCC(N)=O)NC(=O)[C@H](Cc1ccccc1)NC(=O)[C@H](Cc1ccc(O)cc1)NC(=O)[C@@H]1CSCC(CCCC(=O)N2CCN(C(=O)CCl)CC2)C(=O)N1)C(=O)NCC(N)=O` (stereo partly drawn) [H-CYFQNCPRG-NH2], for which, under “31-membered ring”, the ring closure, conversion by HPLC was more than 95%.
Take H-CGGSGGC-[WLAAA-D1/D2 pIII fusion]: under “34-membered ring”, the ring closure, conversion by HPLC came out at 100%.
As for H-CGSGGSGC-[AAA-D1/D2 pIII fusion], for the setting “37-membered ring”, the ring closure, conversion by HPLC was found to be 100%.
H-CPEGYILDDGFCTDIDE-[D1/D2 pIII fusion] returned a ring closure, conversion by HPLC (49-membered ring) of 100%.
H-CQPHPGQTC-[AAA-D1/D2 pIII fusion] had a ring closure, conversion by HPLC (40-membered ring) of 100%.
For the compound H-CYKLAEGDKYYIC-[D1/D2 pIII fusion], the ring closure, conversion by HPLC (52-membered ring) amounted to 100%.
